# Tested on: Metabolism protein genes
# Assay: DNA chip mRNA expression in yeast, metabolism protein genes (Table 7)
# Type: cell-based, Saccharomyces cerevisiae S288C
# Protocol: Yeast (Saccharomyces cerevisiae S288C (α SUC2mal mel gap2 CUP1)) were incubated at 25° C. on YPD medium (yeast extract 1%, polypepton 2%, glucose 2%). One of toxic chemical substances was added to the cells at logarithmic growth phase, and the cells were further incubated for two hours. Cells were cultured without any chemical substance in the same condition, and were used as control. Concentrations of the chemical substances were defined to inhibit the growth of the yeast but not lead to death.
# After completion of the incubation, the culture was centrifuged to collect the cells. To the cells, sodium acetate buffer (50 mM sodium acetate, 10 mM EDTA, 1% SDS) was added, and the mixture was shaken at 65° C. for five minutes, followed by returning to room temperature, and obtaining the supernatant, of which the procedures were repeated two times. To the supernatant, ½ amount of a solution of phenol/chloroform was added, and the mixture was centrifuged to give a supernatant, which was added with an equal amount of chloroform, and the mixture was centrifuged to give a supernatant. To the supernatant, an equal amount of isopropanol containing 0.3 M sodium acetate was added, and the mixture was allowed to stand at room temperature for 30 minutes, after which the mixture was centrifuged to give a sediment of the whole RNAs. Seventy % ethanol was added to the sediment, and the mixture was again centrifuged to give a sediment, which was then dried and dissolved in water. mRNA was isolated from the whole RNAs as followings. In view of the fact that a poly A chain is attached to the 3′ terminus of mRNA, a polynucleotide having a poly T structure which was immobilized on the surface of latex beads was used to trap the mRNA, and then the mRNA was washed and eluted with spine column (Oligotex-dT30<Super>mRNA Purification Kit, Takara). Reverse transcription of the mRNA was conducted with a reverse transcriptase (Super Script II Reverse Transcriptase; catalogue No. 18064-014, GibcoBRL) using fluorescence-labeled nucleotides to give cDNAs that were introduced with Cy3-dUTP or Cy5-dUTP during the reverse transcription.
# The labeled cDNAs were dissolved in TE buffer (10mM Tris-HCl/1 mM EDTA, pH8.0), and the solution was dropped on the DNA chip containing the whole genes of yeast (DNA Chip Research Inc. Japan) so that the cDNAs were hybridized on the DNA chip at 65° C. for over 12 hours. The fluoresces intensity of the DNA chip was read with a scanner, and the ratio relative to the fluorescence intensity resulting from the absence of chemical substance was estimated as the following, which is shown in Tables 1 to 9: […]
smiles,measurement,setting,value
"N#Cc1c(Cl)c(Cl)c(Cl)c(C#N)c1Cl [(9), 2,4,5,6-tetrachloro-1,3-benzenedicarbonitrile]",The level of expressed mRNA in the presence of chemical substance/The level of expressed mRNA in the absence of chemical substance,yeast gene YER178W,1.7
same,level of expressed mRNA in the presence/in the absence of chemical substance,yeast gene YFL011W,0.3
same,The level of expressed mRNA in the presence of chemical substance/The level of expressed mRNA in the absence of chemical substance,yeast gene YFL014W,13.1
same,The level of expressed mRNA in the presence of chemical substance/The level of expressed mRNA in the absence of chemical substance,yeast gene YFL030W,24.5
same,The level of expressed mRNA in the presence of chemical substance/The level of expressed mRNA in the absence of chemical substance,yeast gene YFL031W,1.0
same,The level of expressed mRNA in the presence of chemical substance/The level of expressed mRNA in the absence of chemical substance,yeast gene YFL056C,162.3
same,The level of expressed mRNA in the presence of chemical substance/The level of expressed mRNA in the absence of chemical substance,yeast gene YFL057C,51.8
same,The level of expressed mRNA in the presence of chemical substance/The level of expressed mRNA in the absence of chemical substance,yeast gene YFR047C,3.0
same,level of expressed mRNA in the presence/in the absence of chemical substance,yeast gene YGL012W,0.3
same,The level of expressed mRNA in the presence of chemical substance/The level of expressed mRNA in the absence of chemical substance,yeast gene YGL022W,0.9
same,The level of expressed mRNA in the presence of chemical substance/The level of expressed mRNA in the absence of chemical substance,yeast gene YGL026C,3.7
same,level of expressed mRNA in the presence/in the absence of chemical substance,yeast gene YGL115W,1.2
same,The level of expressed mRNA in the presence of chemical substance/The level of expressed mRNA in the absence of chemical substance,yeast gene YGL126W,1.6
same,The level of expressed mRNA in the presence of chemical substance/The level of expressed mRNA in the absence of chemical substance,yeast gene YGL202W,1.3
same,The level of expressed mRNA in the presence of chemical substance/The level of expressed mRNA in the absence of chemical substance,yeast gene YGL209W,0.6
same,The level of expressed mRNA in the presence of chemical substance/The level of expressed mRNA in the absence of chemical substance,yeast gene YGL248W,0.2
same,The level of expressed mRNA in the presence of chemical substance/The level of expressed mRNA in the absence of chemical substance,yeast gene YGL252C,2.7
same,The level of expressed mRNA in the presence of chemical substance/The level of expressed mRNA in the absence of chemical substance,yeast gene YGL254W,3.1
same,The level of expressed mRNA in the presence of chemical substance/The level of expressed mRNA in the absence of chemical substance,yeast gene YGR037C,1.7
same,The level of expressed mRNA in the presence of chemical substance/The level of expressed mRNA in the absence of chemical substance,yeast gene YGR055W,5.0
same,level of expressed mRNA in the presence/in the absence of chemical substance,yeast gene YGR096W,0.8
same,level of expressed mRNA in the presence/in the absence of chemical substance,yeast gene YGR191W,0.1
same,The level of expressed mRNA in the presence of chemical substance/The level of expressed mRNA in the absence of chemical substance,yeast gene YGR194C,2.4
same,level of expressed mRNA in the presence/in the absence of chemical substance,yeast gene YGR204W,0.9
same,The level of expressed mRNA in the presence of chemical substance/The level of expressed mRNA in the absence of chemical substance,yeast gene YGR256W,3.4
same,The level of expressed mRNA in the presence of chemical substance/The level of expressed mRNA in the absence of chemical substance,yeast gene YGR282C,0.8
same,level of expressed mRNA in the presence/in the absence of chemical substance,yeast gene YGR288W,1.6
same,level of expressed mRNA in the presence/in the absence of chemical substance,yeast gene YHR025W,0.2
same,The level of expressed mRNA in the presence of chemical substance/The level of expressed mRNA in the absence of chemical substance,yeast gene YHR111W,4.5
same,level of expressed mRNA in the presence/in the absence of chemical substance,yeast gene YHR123W,0.8
same,The level of expressed mRNA in the presence of chemical substance/The level of expressed mRNA in the absence of chemical substance,yeast gene YHR137W,0.2
same,The level of expressed mRNA in the presence of chemical substance/The level of expressed mRNA in the absence of chemical substance,yeast gene YHR174W,1.0
same,The level of expressed mRNA in the presence of chemical substance/The level of expressed mRNA in the absence of chemical substance,yeast gene YHR176W,6.3
same,level of expressed mRNA in the presence/in the absence of chemical substance,yeast gene YIL006W,0.9
same,The level of expressed mRNA in the presence of chemical substance/The level of expressed mRNA in the absence of chemical substance,yeast gene YIL045W,2.1
same,The level of expressed mRNA in the presence of chemical substance/The level of expressed mRNA in the absence of chemical substance,yeast gene YIL107C,3.5
same,The level of expressed mRNA in the presence of chemical substance/The level of expressed mRNA in the absence of chemical substance,yeast gene YIL154C,2.4
same,The level of expressed mRNA in the presence of chemical substance/The level of expressed mRNA in the absence of chemical substance,yeast gene YIL155C,2.5
same,The level of expressed mRNA in the presence of chemical substance/The level of expressed mRNA in the absence of chemical substance,yeast gene YIL167W,6.9
same,The level of expressed mRNA in the presence of chemical substance/The level of expressed mRNA in the absence of chemical substance,yeast gene YIL168W,7.8
same,The level of expressed mRNA in the presence of chemical substance/The level of expressed mRNA in the absence of chemical substance,yeast gene YIR031C,2.6
same,The level of expressed mRNA in the presence of chemical substance/The level of expressed mRNA in the absence of chemical substance,yeast gene YIR032C,2.6
same,The level of expressed mRNA in the presence of chemical substance/The level of expressed mRNA in the absence of chemical substance,yeast gene YIR034C,3.2
same,The level of expressed mRNA in the presence of chemical substance/The level of expressed mRNA in the absence of chemical substance,yeast gene YIR036C,3.3
same,The level of expressed mRNA in the presence of chemical substance/The level of expressed mRNA in the absence of chemical substance,yeast gene YJL031C,4.7
same,The level of expressed mRNA in the presence of chemical substance/The level of expressed mRNA in the absence of chemical substance,yeast gene YJL045W,9.7
same,The level of expressed mRNA in the presence of chemical substance/The level of expressed mRNA in the absence of chemical substance,yeast gene YJL060W,5.3
same,The level of expressed mRNA in the presence of chemical substance/The level of expressed mRNA in the absence of chemical substance,yeast gene YJL068C,6.5
same,The level of expressed mRNA in the presence of chemical substance/The level of expressed mRNA in the absence of chemical substance,yeast gene YJL088W,3.2
same,The level of expressed mRNA in the presence of chemical substance/The level of expressed mRNA in the absence of chemical substance,yeast gene YJL099W,3.1
